Experimental data published in patent US20210290576A1, “STRUCTURALLY MODIFIED FATTY ACIDS FOR IMPROVING GLYCEMIC CONTROL AND TREATING INFLAMMATORY BOWEL DISEASE” (NORTHSEA THERAPEUTICS B.V., priority 2018, published 2021).
“Also recorded” adds a separate entry of the source.

Assays:
[1] = system: IL6, IL1b, S100A8, TNFα, Reg3g, IL17a mRNA; assay: Colonic mRNA levels of proinflammatory cytokines and biomarkers in DSS-induced colitis mice (real-time PCR); format: in vivo, C56BL/6J mouse; conditions: 126 and 252 mg/kg per day; normalized to HPRT; vs untreated mice
Protocol: The C56BL/6J mouse is a strain susceptible to DSS-induced colitis. To evaluate the efficacy and dosage of Compound B in treatment of DSS-induced colitis, inflammation was induced in 30 9-week old C56BL/6J mice by adding 1.5% DSS to the drinking water for 7 days. The mice were fed a standard chow diet that consisted of 30 weight percent wheat. The mice were divided into three groups of 10, and for each day of DSS administration each group was administered via oral gavage either (1) 100 μL corn oil per day (Control), (2) 126 mg/kg Compound B (dissolved in 100 μL corn oil) per day (“Compound B—Low” or “Compound B—L”), or (3) 252 mg/kg Compound B (dissolved in 100 μL corn oil) per day (“Compound B—High” or “Compound B—H”). Following the 7-day period of DSS induction, mice were sacrificed and their intestinal tissue was used for histopathological and gene expression analysis.
To evaluate the effect of treatment with Compound B on the levels of proinflammatory cytokines and biomarkers, total RNA was extracted from small and large intestinal tissue samples (>100 mg). cDNA was synthesized by reverse transcription and analyzed by real-time PCR. Results were normalized to the level of the housekeeping gene hypoxanthine guanine phosphoribosyltransferase (HPRT). The relative mRNA expression of the tested gene relative to HPRT expression was calculated using the 2^−ΔΔCt method as described in Pickert et al., J. Exp. Med., 2009, 206:1465-1472. Interleukin 6 (IL6), IL1b, calgranulin-A (S100A8), and tumor necrosis factor α (TNFα) have been implicated as mediators of IBD, including both ulcerative colitis and Crohn's disease. IL6, IL1b, and calgranulin-A are prominently expressed in inflammatory macrophages. IL22-dependent regenerating islet-derived 3 gamma (Reg3g) is induced in response to inflammation in epithelial cells. IL17 is secreted by Th17 T helper cells and innate lymphoid cells type 3 (ILC3).

[2] = system: B6.V-Lepob/Jrj mice (ob/ob), T2DM rodent model; assay: Glucose tolerance (0-120 mins) after 28-day treatment in ob/ob mice; format: in vivo; conditions: 28 days; for glucose tolerance: 2 g/kg oral glucose load
Protocol: This study was carried out to assess the effects of chronic treatment with Compound B or Compound A on glucose tolerance in a T2DM rodent model.
For assessing the effects of Compound B, B6.V-Lepob/Jrj mice (ob/ob) mice were administered Compound B at one of 2 doses, 125 and 250 mg/kg for 28 days. […] After the oral glucose load, plasma glucose was measured at multiple time points from and AUC (0-120 mins) for glucose was calculated.

[3] = Excretion balance: recovery of radioactivity in excreta; format: in vivo, male albino rats; conditions: single oral 50 mg/kg [14C]-Compound B
Protocol: Biological Example 8. Recovery of Radioactivity in the Excreta of Male Albino Rats after a Single Oral Administration of [14C]-Compound B at a Nominal Dose Level of 50 mg/kg Body Weight
To assess Compound B clearance via urine versus feces, the excretion pattern of a single oral dose of [14C]-Compound B was determined in male albino rats. […] The total excretion of radioactivity following oral administration was >95% within the first 48 hours. Excretion via the urine accounted for 12% of the administered dose. […]

plasma insulin = assay: Plasma insulin at 24 h after OGTT in lean male SPD rats; format: in vivo, Sprague-Dawley (SPD) rats; conditions: non-significant
Protocol: Evaluation of the Acute Effects of Compound a and Compound B Upon Active GLP-1 wconcentrations during an oral glucose tolerance test (OGTT) and at 24 h in lean male SPD Rats
To establish the acute effects of oral administration of Compound A and Compound B upon active GLP-1 and insulin concentrations, lean (about 300 g) male Sprague-Dawley (SPD) rats were divided into groups (n=6-8) and fed 74 and 84 mg/kg body weight of Compound A or Compound B respectively, either with or without concurrent administration of a dipeptidyl peptidase 4 (DPP-4) inhibitor 60 minutes prior to an oral glucose tolerance test (OGTT) as outlined below. Parallel groups receiving either corn oil alone (corn oil+vehicle, n=10) or corn oil and a DPP-4 inhibitor (“DPP-4 i”) (corn oil+(DPP-4 i), n=10) were included as controls. The DPP-4 inhibitor was linagliptin.
A second oral dose of 74 and 84 mg/kg bodyweight of Compound A or Compound B respectively was administered at 240 minutes and ad lib feeding was initiated. A second dose of DPP-4 inhibitor was administered at 480 mins prior to lights out. Blood samples were collected at 24 h for measurement of active GLP-1 and insulin. All values are mean, figures depict mean values (SEM).

[4] = 250 mg/kg once daily oral gavage

CC/C=C\C/C=C\C/C=C\C/C=C\C/C=C\CCCCSC(CC)(CC)C(=O)O [Compound B, 2-ethyl-2-((5Z,8Z,11 Z,14Z,17Z)-icosa-5,8,11,14,17-pentaenylthio)butanoic acid]
relative colonic mRNA level of IL1b [1]: reduced colonic expression; also recorded: dose-dependent decrease | relative colonic mRNA level of IL6 [1]: reduced colonic expression; also recorded: dose-dependent decrease | relative colonic mRNA level of IL17a [1]: lack of change | relative colonic mRNA level of Reg3g [1]: reduced colonic expression; also recorded: dose-dependent decrease | relative colonic mRNA level of S100A8 [1]: reduced colonic expression; also recorded: dose-dependent decrease | relative colonic mRNA level of TNFα [1]: reduced colonic expression; also recorded: dose-dependent decrease | glucose tolerance ([2]; 125 mg/kg once daily oral gavage): improved glucose tolerance | AUC (0-120 mins) glucose [2, 4]: potent and highly significant (p<0.001) reduction | glucose tolerance [2, 4]: improved glucose tolerance | % Recovery of Administered Dose, Mean total radioactivity ([3]; 0-168 h, n = 3): 101% | total excretion of radioactivity within the first 48 hours [3]: > 95% | increase of plasma insulin concentrations at 24 h versus corn oil+vehicle and corn oil+DPP4 inhibitor (plasma insulin; compound alone): 25% | increase of plasma insulin concentrations at 24 h versus corn oil+vehicle and corn oil+DPP4 inhibitor (plasma insulin; in combination with DPP4 inhibitor (linagliptin)): 40%
